Assay results from ChEMBL document CHEMBL1201862, “PubChem BioAssay data set” (2004).
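Compound exposure: 48 hours, 5 concentrations, 96-well plates. GI50: concentration for 50% inhibition of growth.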 Calls of active or inactive are those of the source. No stated cut-off is given here; in the data, active = GI50 up to about 1.1 µM and inactive = higher.

What was measured:
Assay in all cases: NCI tumour cell line growth inhibition, 48 h
786-0 = tested on: 786-0
A498 = tested on: A498
A549 = tested on: A549
ACHN = tested on: ACHN
BT-549 = tested on: BT-549
CAKI-1 = tested on: CAKI-1
CCRF-CEM = tested on: CCRF-CEM
COLO 205 = tested on: COLO 205
DU-145 = tested on: DU-145
EKVX = tested on: EKVX
HCC 2998 = tested on: HCC 2998
HCT-116 = tested on: HCT-116
HCT-15 = tested on: HCT-15
HL-60 = tested on: HL-60
HOP-62 = tested on: HOP-62
HOP-92 = tested on: HOP-92
HT-29 = tested on: HT-29
Hs-578T = tested on: Hs-578T
IGROV-1 = tested on: IGROV-1
K562 = tested on: K562
KM12 = tested on: KM12
M14 = tested on: M14
MCF7 = tested on: MCF7
MDA-MB-231 = tested on: MDA-MB-231
MDA-MB-435 = tested on: MDA-MB-435
MDA-N = tested on: MDA-N
MOLT-4 = tested on: MOLT-4
Malme-3M = tested on: Malme-3M
NCI-H226 = tested on: NCI-H226
NCI-H23 = tested on: NCI-H23
NCI-H460 = tested on: NCI-H460
NCI-H522 = tested on: NCI-H522
NCI/ADR-RES = tested on: NCI/ADR-RES
OVCAR-3 = tested on: OVCAR-3
OVCAR-4 = tested on: OVCAR-4
OVCAR-5 = tested on: OVCAR-5
OVCAR-8 = tested on: OVCAR-8
PC-3 = tested on: PC-3
RPMI-8226 = tested on: RPMI-8226
RXF 393 = tested on: RXF 393
SF-268 = tested on: SF-268
SF-295 = tested on: SF-295
SF-539 = tested on: SF-539
SK-MEL-28 = tested on: SK-MEL-28
SK-MEL-2 = tested on: SK-MEL-2
SK-MEL-5 = tested on: SK-MEL-5
SK-OV-3 = tested on: SK-OV-3
SN12C = tested on: SN12C
SNB-19 = tested on: SNB-19
SNB-75 = tested on: SNB-75
SR = tested on: SR
SW-620 = tested on: SW-620
T47D = tested on: T47D
TK-10 = tested on: TK-10
U-251 = tested on: U-251
UACC-257 = tested on: UACC-257
UACC-62 = tested on: UACC-62
UO-31 = tested on: UO-31

## CCOC(=O)c1nc2cc(N3CCOCC3)c(F)cc2[nH]c1=O
786-0
  GI50: > 100 µM (inactive)
A498
  GI50: > 100 µM (inactive)
A549
  GI50: > 100 µM (inactive)
ACHN
  GI50: > 100 µM (inactive)
BT-549
  GI50: > 100 µM (inactive)
CAKI-1
  GI50: > 100 µM (inactive)
CCRF-CEM
  GI50: 91.8 µM (inactive)
COLO 205
  GI50: > 100 µM (inactive)
DU-145
  GI50: > 100 µM (inactive)
EKVX
  GI50: 4.67 µM (inactive)
HCC 2998
  GI50: > 100 µM (inactive)
HCT-116
  GI50: > 100 µM (inactive)
HCT-15
  GI50: > 100 µM
HL-60
  GI50: 19.8 µM (inactive)
HOP-62
  GI50: 57.5 µM (inactive)
HOP-92
  GI50: 37.9 µM (inactive)
HT-29
  GI50: 69.8 µM (inactive)
Hs-578T
  GI50: 33.4 µM (inactive)
IGROV-1
  GI50: 39 µM (inactive)
K562
  GI50: > 100 µM (inactive)
KM12
  GI50: > 100 µM (inactive)
M14
  GI50: > 100 µM (inactive)
MCF7
  GI50: > 100 µM (inactive)
MDA-MB-231
  GI50: > 100 µM (inactive)
MDA-MB-435
  GI50: > 100 µM (inactive)
MDA-N
  GI50: > 100 µM (inactive)
MOLT-4
  GI50: > 100 µM (inactive)
Malme-3M
  GI50: > 100 µM (inactive)
NCI-H226
  GI50: 20.3 µM (inactive)
NCI-H23
  GI50: > 100 µM (inactive)
NCI-H460
  GI50: > 100 µM (inactive)
NCI-H522
  GI50: 67.9 µM (inactive)
NCI/ADR-RES
  GI50: > 100 µM (inactive)
OVCAR-3
  GI50: > 100 µM (inactive)
OVCAR-4
  GI50: > 100 µM (inactive)
OVCAR-5
  GI50: 64.3 µM (inactive)
OVCAR-8
  GI50: 86.9 µM (inactive)
PC-3
  GI50: > 100 µM (inactive)
RPMI-8226
  GI50: > 100 µM (inactive)
RXF 393
  GI50: > 100 µM (inactive)
SF-268
  GI50: > 100 µM (inactive)
SF-295
  GI50: 83.4 µM (inactive)
SF-539
  GI50: > 100 µM (inactive)
SK-MEL-28
  GI50: > 100 µM (inactive)
SK-MEL-2
  GI50: > 100 µM (inactive)
SK-MEL-5
  GI50: > 100 µM (inactive)
SK-OV-3
  GI50: > 100 µM (inactive)
SN12C
  GI50: > 100 µM (inactive)
SNB-19
  GI50: > 100 µM (inactive)
SNB-75
  GI50: 52 µM (inactive)
SR
  GI50: 54.2 µM (inactive)
SW-620
  GI50: > 100 µM (inactive)
T47D
  GI50: > 100 µM (inactive)
TK-10
  GI50: > 100 µM (inactive)
U-251
  GI50: > 100 µM (inactive)
UACC-257
  GI50: > 100 µM (inactive)
UACC-62
  GI50: 92.9 µM (inactive)
UO-31
  GI50: 35.2 µM (inactive)
